According to patent publication EP3723745B1, “PHENOXY ACIDS FOR THE TREATMENT OF NEUROMUSCULAR DISORDERS” (NMD Pharma A/S, priority 2017, dated 2019):

Tests used:
CIC-1 channels = biological target: T1, CIC-1 channels (Rattus norvegicus, UniProt P35524); experiment: Electrophysiological measurement of compound inhibition of CIC-1 in rat muscle (Gm, three micro-electrodes technique); format: cell-based; conditions: reduction of Gm in fibres of whole rat soleus muscles, approx. 30°C; n = number of experiments
T1 construct: from tissue; host or cells: intact soleus muscle of 12-14-week old Wistar rats
T1 sequence (P35524 1-994): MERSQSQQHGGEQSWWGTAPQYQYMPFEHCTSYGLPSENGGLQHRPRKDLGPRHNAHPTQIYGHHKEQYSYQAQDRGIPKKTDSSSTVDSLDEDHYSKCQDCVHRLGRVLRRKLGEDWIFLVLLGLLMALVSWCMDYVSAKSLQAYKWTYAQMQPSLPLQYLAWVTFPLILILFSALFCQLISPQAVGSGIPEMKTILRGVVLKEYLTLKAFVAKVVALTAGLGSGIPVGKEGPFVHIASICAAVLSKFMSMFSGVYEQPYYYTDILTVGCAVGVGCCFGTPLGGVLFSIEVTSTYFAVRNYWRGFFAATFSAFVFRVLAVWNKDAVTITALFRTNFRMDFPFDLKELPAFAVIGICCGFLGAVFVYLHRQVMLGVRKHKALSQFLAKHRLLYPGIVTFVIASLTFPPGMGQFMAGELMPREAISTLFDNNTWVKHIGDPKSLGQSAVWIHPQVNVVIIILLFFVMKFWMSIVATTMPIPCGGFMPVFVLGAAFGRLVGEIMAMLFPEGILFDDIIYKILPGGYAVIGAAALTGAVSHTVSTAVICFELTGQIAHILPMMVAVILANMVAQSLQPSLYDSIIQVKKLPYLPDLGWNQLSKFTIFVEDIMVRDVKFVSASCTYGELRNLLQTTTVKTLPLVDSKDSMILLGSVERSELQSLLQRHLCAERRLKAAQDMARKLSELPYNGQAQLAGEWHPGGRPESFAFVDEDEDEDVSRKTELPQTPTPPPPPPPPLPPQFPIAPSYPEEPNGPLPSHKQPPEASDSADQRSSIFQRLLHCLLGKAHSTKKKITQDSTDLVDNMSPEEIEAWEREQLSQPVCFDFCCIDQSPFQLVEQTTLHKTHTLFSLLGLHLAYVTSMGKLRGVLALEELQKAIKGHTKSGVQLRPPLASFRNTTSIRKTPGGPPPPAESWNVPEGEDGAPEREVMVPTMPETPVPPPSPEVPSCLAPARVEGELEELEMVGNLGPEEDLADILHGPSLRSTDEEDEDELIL
Excerpt: Table 2: Inhibition of CIC-1 ion channel using compounds of the invention

soleus muscles = experiment: Measurement of force in an in vitro model: isolated rat nerve-muscle preparation with tubocurarine; conditions: for activation at 50 µM: Rattus norvegicus, 40 min, percentage of initial force restored after 40 mins with 50 µM test compound, tubocurarine (115 nM) for 90 mins, read-out: Point increase
Protocol: Recovery of force is quantified as the percentage of the force prior to tubocurarine that is recovered by the compound.
The current invention relates to compounds that inhibit CIC-1 ion channels and increase muscle excitability and thereby improve muscle function in clinical conditions where muscle activation is failing. Such conditions result in loss of contractile function of skeletal muscle, weakness and excessive fatigue. In this series of experiments the compounds were tested for their ability to restore contractile function of isolated rat muscle when the neuromuscular transmission had been compromised akin to neuromuscular disorders.
Experimentally, soleus muscles from 4-5 wk old rats were isolated with the motor nerve remaining attached. The nerve-muscle preparations were mounted in experimental setups that enabled electrical stimulation of the motor nerve. Stimulation of the motor nerve led to activation of the muscle fibres and ensuing force production that was recorded.
After mounting the nerve-muscle preparation in the experimental setup, the contractile function of the muscle was initially assessed under the control conditions (Figure 2A). […] The experimental condition mimics the failing neuromuscular transmission in a range of neuromuscular disorders. After addition of tubocurarine the contractile force declined over the next 90 mins to 10-50 % of the control force. 50 µM of the test compound was then added and the contractile force recovered despite the continued presence of tubocurarine. To quantify the ability of the compound to restore force the percentage of the initial force that was restored was determined after 40 mins of compound exposure (Figure 2B) and the point increase is reported in Table 3. Table 3: Percentage increase of initial force that was restored using compounds of the invention

EC50 (CIC-1 channels)	SMILES	average force (AUC) relative to initial force (soleus muscles; 50 µM compound added after 90 min incubation in tubocurarine, 3 muscles (Figure 2))	activation at 50 µM (soleus muscles)
> 80 µM	CC(C)[C@@H](Oc1ccc(Br)cc1F)C(=O)O [Compound A-4, (2R)-2-(4-bromo-2-fluorophenoxy)-3-methylbutanoic acid]	–	–
–	O=C(O)[C@H](CF)Oc1ccc(Br)cc1F [Compound A-19, (2R)-2-(4-bromo-2-fluorophenoxy)-3-fluoropropanoic acid]	recovered	–
–	C[C@@H](Oc1ccc(Br)cc1F)C(=O)O [Compound A-28, (2R)-2-(4-bromo-2-fluorophenoxy)propanoi c acid]	–	-8%
6.8 ± 1.3 µM	COC(=O)[C@H](C)Oc1ccc(Cl)cc1 [Compound A-54, methyl (2S)-2-(4-chlorophenoxy)propano ate]	–	–
10.1 ± 0.2 µM	O=C(O)[C@@H](Oc1ccc(Br)cc1Cl)C1CCC1 [Compound A-71, (2S)-2-(4-bromo-2-chlorophenoxy)-2-cyclobutylacetic acid]	–	49%
7.2 µM	CC(C)[C@H](Oc1ccc(Br)cc1Cl)C(=O)O [Compound A-73, (2S)-2-(4-bromo-2-chlorophenoxy)-3-methylbutanoic acid]	–	51%
7.6 ± 1.6 µM	CC[C@H](Oc1ccc(Br)cc1Cl)C(=O)O [Compound A-78, (2S)-2-(4-bromo-2-chlorophenoxy)butanoic acid]	–	38%
8 µM	O=C(O)[C@H](CCF)Oc1ccc(Br)cc1I [Compound A-83, (2S)-2-(4-bromo-2-iodophenoxy)-4-fluorobutanoic acid]	–	35%
8.9 ± 3.2 µM	O=C(O)[C@@H](Oc1ccc(Br)cc1F)C1CCC1 [Compound A-86, (2S)-2-(4-bromo-2-fluorophenoxy)-2-cyclobutylacetic acid]	–	45%
5.9 ± 1.6 µM	CC(C)[C@H](Oc1ccc(Br)cc1I)C(=O)O [Compound A-88, (2S)-2-(4-bromo-2-iodophenoxy)-3-methylbutanoic acid]	–	55%
2.3 µM	CC[C@H](Oc1ccc(Br)cc1I)C(=O)O [Compound A-90, (2S)-2-(4-bromo-2-iodophenoxy)butanoic acid]	–	57%
